Experiments:
Type in all cases: in vivo
[1] = tested on: Verconica persica (VERPE); assay: Pre-emergence herbicidal action against VERPE; details: dosage 320 g/ha
Procedure, shortened: (§1)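 Application rates ran to 320 g/ha or lower, with several dosages tested on the same weeds. The compound, as wettable powder or emulsion concentrate, is sprayed pre-emergence onto soil over sown seeds; greenhouse growth follows, and effect is rated visually after roughly 3 weeks.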

Viola tricolor (VIOTR) [2] = assay: Post-emergence herbicidal action against VIOTR
Procedure, shortened: (§2)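 Rates were 320 g/ha or below, applied as aqueous WP/EC spray with 0.5% additive (600 l/ha) onto one-leaf-stage plants. About 3 weeks later in the greenhouse, damage was scored visually against untreated plants on a 0–100% scale, where 100% means plants died.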

[3] = tested on: Verconica persica (VERPE); assay: Post-emergence herbicidal action against VERPE
Procedure, shortened: as §2

[4] = tested on: Abutilon theophrasti (ABUTH); assay: Pre-emergence herbicidal action against ABUTH; details: Dosage column 320 g/ha (title prints 3200 g/ha); scored visually after about 3 weeks; 100% = plants have died
Procedure, shortened: as §1

Lolium rigidum (LOLRI) [5] = assay: Pre-emergence herbicidal action against LOLRI
Procedure, shortened: as §1

Setaria viridis (SETVI) [6] = assay: Post-emergence herbicidal action against SETVI
Procedure, shortened: as §2

[7] = tested on: Alopecurus myosuroides (ALOMY); assay: Pre-emergence herbicidal action against ALOMY; details: scored visually after about 3 weeks, 100% = plants have died
Procedure, shortened: as §1

[8] = tested on: Echinochloa crus-galli (ECHCG); assay: Post-emergence herbicidal action against ECHCG; details: dosage 320 g/ha
Procedure, shortened: as §2

Avena fatua (AVEFA) [9] = assay: Pre-emergence herbicidal action against AVEFA; details: 320 g/ha, visual scoring after about 3 weeks vs untreated controls
Procedure, shortened: as §1

[10] = tested on: Pharbitis purpurea (PHBPU); assay: Pre-emergence herbicidal action against PHBPU; details: dosage 320 g/ha
Procedure, shortened: as §1

[11] = tested on: Echinochloa crus-galli (ECHCG); assay: Pre-emergence herbicidal action against ECHCG; details: dosage 320 g/ha
Procedure, shortened: as §1

[12] = tested on: Alopecurus myosuroides (ALOMY); assay: Post-emergence herbicidal action against ALOMY; details: visual rating about 3 weeks after treatment vs untreated controls (100% = plants have died, 0% = like control plants)
Procedure, shortened: as §2

[13] = tested on: Polygonum convolvulus (POLCO); assay: Pre-emergence herbicidal action against POLCO
Procedure, shortened: as §1

[14] = tested on: Matricaria inodora (MATIN); assay: Pre-emergence herbicidal action against MATIN
Procedure, shortened: as §1

[15] = tested on: Amaranthus retroflexus (AMARE); assay: Pre-emergence herbicidal action against AMARE; details: visual scoring after about 3 weeks vs untreated controls
Procedure, shortened: as §1

[16] = tested on: Digitaria sanguinalis (DIGSA); assay: Post-emergence herbicidal action against DIGSA; details: visual rating about 3 weeks after treatment
Procedure, shortened: as §2

[17] = tested on: Polygonum convolvulus (POLCO); assay: Post-emergence herbicidal action against POLCO; details: dosage 320 g/ha
Procedure, shortened: as §2

[18] = tested on: Pharbitis purpurea (PHBPU); assay: Post-emergence herbicidal action against PHBPU
Procedure, shortened: as §2

Lolium rigidum (LOLRI) [19] = assay: Post-emergence herbicidal action against LOLRI; details: dosage 320 g/ha
Procedure, shortened: as §2

Avena fatua (AVEFA) [20] = assay: Post-emergence herbicidal action against AVEFA; details: 320 g/ha, visual rating about 3 weeks after treatment
Procedure, shortened: as §2

[21] = tested on: Digitaria sanguinalis (DIGSA); assay: Pre-emergence herbicidal action against DIGSA
Procedure, shortened: as §1

[22] = tested on: Abutilon theophrasti (ABUTH); assay: Post-emergence herbicidal action against ABUTH; details: 320 g/ha, visual rating about 3 weeks after treatment vs untreated controls (100% = plants have died, 0% = like control plants)
Procedure, shortened: as §2

Setaria viridis (SETVI) [23] = assay: Pre-emergence herbicidal action against SETVI
Procedure, shortened: as §1

Viola tricolor (VIOTR) [24] = assay: Pre-emergence herbicidal action against VIOTR
Procedure, shortened: as §1

Compound: COC(=O)[C@H](C)COC(=O)COc1nn(-c2ccccn2)c(-c2cncc(F)c2)c1Br [Example I-195]
- Pre-emergence action against VERPE in % [1]: 100%
- Post-emergence action against VIOTR in % (Viola tricolor (VIOTR) [2]; 80 g/ha): 80%
- Post-emergence action against VIOTR in % (Viola tricolor (VIOTR) [2]; 320 g/ha): 80%
- Post-emergence action against VERPE in % ([3]; 320 g/ha, VERPE): 80%
- Post-emergence action against VERPE in % ([3]; dosage 80 g/ha): 80%
- Pre-emergence action against ABUTH [4]: 80%
- Pre-emergence action against LOLRI in % (Lolium rigidum (LOLRI) [5]; dosage 80 g/ha): 80%
- Pre-emergence action against LOLRI in % (Lolium rigidum (LOLRI) [5]; dosage 320 g/ha): 100%
- Post-emergence action against SETVI in % (Setaria viridis (SETVI) [6]; dosage 80 g/ha): 90%
- Post-emergence action against SETVI in % (Setaria viridis (SETVI) [6]; dosage 320 g/ha): 90%
- Pre-emergence action against ALOMY ([7]; 80 g/ha): 80%
- Pre-emergence action against ALOMY ([7]; 320 g/ha): 90%
- Post-emergence action against ECHCG in % [8]: 80%
- Pre-emergence action against AVEFA in % (Avena fatua (AVEFA) [9]): 90%
- Pre-emergence action against PHBPU in % [10]: 90%
- Pre-emergence action against ECHCG in % [11]: 100%
- Post-emergence action against ALOMY in % ([12]; 80 g/ha): 80%
- Post-emergence action against ALOMY in % ([12]; 320 g/ha): 90%
- Pre-emergence action against POLCO in % ([13]; dosage 80 g/ha): 90%
- Pre-emergence action against POLCO in % ([13]; dosage 320 g/ha): 100%
- Pre-emergence action against MATIN in % ([14]; dosage 80 g/ha): 90%
- Pre-emergence action against MATIN in % ([14]; dosage 320 g/ha): 90%
- Pre-emergence action against AMARE in % ([15]; 80 g/ha): 90%
- Pre-emergence action against AMARE in % ([15]; 320 g/ha): 100%
- Post-emergence action against DIGSA in % ([16]; 80 g/ha): 90%
- Post-emergence action against DIGSA in % ([16]; 320 g/ha): 90%
- Post-emergence action against POLCO in % [17]: 80%
- Post-emergence action against PHBPU in % ([18]; dosage 80 g/ha): 90%
- Post-emergence action against PHBPU in % ([18]; dosage 320 g/ha): 90%
- Post-emergence action against LOLRI in % (Lolium rigidum (LOLRI) [19]): 80%
- Post-emergence action against AVEFA in % (Avena fatua (AVEFA) [20]): 90%
- Pre-emergence action against DIGSA in % ([21]; 80 g/ha, visual scoring after about 3 weeks vs untreated controls): 90%
- Pre-emergence action against DIGSA in % ([21]; dosage 320 g/ha): 100%
- Post-emergence action against ABUTH in % [22]: 90%
- Pre-emergence action against SETVI in % (Setaria viridis (SETVI) [23]; dosage 80 g/ha): 100%
- Pre-emergence action against SETVI in % (Setaria viridis (SETVI) [23]; dosage 320 g/ha): 100%
- Pre-emergence action against VIOTR in % (Viola tricolor (VIOTR) [24]; 320 g/ha, Viola tricolor): 100%
- Pre-emergence action against VIOTR in % (Viola tricolor (VIOTR) [24]; dosage 80 g/ha): 80%
